Experimental data reported in US20160151410A1, “CLEARANCE OF BIOACTIVE LIPIDS FROM MEMBRANE STRUCTURES BY CYCLODEXTRINS” (The Trustees of Columbia University in the City of New York, priority 2013, published 2016).
“Also recorded” adds a separate entry of the source.

Legend:
[1] = tested on: lysophospholipids from LIPC-digested human LDL; test: Extraction of lysophospholipids from LIPC-digested LDL by cyclodextrins, read out as complement C3 fixation; assay type: biochemical; conditions: for complement activation after cyclodextrin extraction of LIPC-digested LDL: 20 mM cyclodextrin
Procedure: Immobilized LDL was digested with LIPC, then 20 mM of different cyclodextrins (A), or 0-20 mM HPαCD (B), or 20 mM HPαCD (C), or 2 mM of HPαCD in combination with 0.5 mg/ml of native LDL (D) are used for 20 hours extraction (A, B, D), or 0-20 hours extraction (C). Complement activation with diluted native human serum was then performed. MβCD—methyl-β-cyclodextrin; HPβCD—hydroxypropyl-β-cyclodextrin.
(§1) 96-well NUNC MaxiSorp plates were coated with 40 μl of human LDL, VLDL, or NaOH-hydrolyzed LDL, all at 200 μg/ml in PBS, at 4° C. overnight then 37° C. for 1 hour, and remaining binding sites were blocked with 3% BSA in PBS at 37° C. for 1 hour. The wells were washed and then incubated with 40 μl of LIPC or CEase in PBS containing 2% BSA at 37° C. for 1 or 2 hours as indicated in Results section, and the degradation reaction was stopped by washing the plate with PBS. For complement system activation, the resulted plate was incubated with 20 μl of 1:1 diluted human sera at 21° C. for 30 minutes. The diluent for serum dilution was PBS containing calcium and magnesium, and human sera that were utilized in our study were native serum, C1q-depleted serum, factor B-depleted serum, native serum with addition of 10 mM of MgCl2 and 20 mM EGTA (Mg-EGTA), and native serum with addition of 10 mM EDTA.
(§2) After thorough washing of the plate, C3 fixation and final membrane attack complex formation on the plate were determined with anti-human C3d antibody and anti-human C5b-9 antibody, in combination with HRP-conjugated secondary antibody, respectively. The monoclonal anti-human C3d antibody is reactive to all C3d-containing fragments of C3, but not with C3 itself, so it detects C3 fixation on the plate and not C3 absorption. The final peroxidase activity was monitored at 450 nm with 3,3′,5,5′-tetramethyl-benzidine and hydrogen peroxide as substrates after 10 or 15 minutes reaction at room temperature.
We tested several cyclodextrins for the ability to extract lysophospholipids from LIPC-digested human LDL. Since lysophospholipid level in lipoprotein is directly related to complement C3 fixation, we use C3 fixation as an indicative parameter for levels of lysophospholipids in lipoprotein. […] We also tested HPαCD upon shuttling of lysophospholipids between LIPC-digested LDL and native LDL, a biological feature of lipid transport (FIG. 4D).

[2] = tested on: rabbit cornea after alkali burn; test: Rabbit corneal neovascularization by alkali burn; assay type: in vivo
Procedure: Alkali burn on central cornea was performed with 6 mm filter paper disc wetted with 8 μl of 1M NaOH. Cornea were then extensively washed with PBS, followed by treatment with control formula (left eye) and cyclodextrin formula (right eye) as described in Materials and Methods. The bottom two pictures are fluorescein angiograms showing the leaking new vessels in the cornea. White arrows in pictures show corneal neovascularization.
3 New Zealand white rabbits, aged 4-5 months and weighing 1.8-2.6 kg, were obtained from Charles River Laboratories (Wilmington, Mass.) and acclimatized for several weeks before the experiments started. All of the rabbits were anesthetized using ketamine (42 mg/kg) and xylazine (7 mg/kg) intramuscularly. 0.5% proparacaine hydrochloride (Akorn, Inc. Lake Forest, Ill.) was applied topically. Alkali burn on central cornea of both eyes was performed with 6 mm round disc of Whatman No. 1 filter paper wetted with […] of 1M NaOH for exactly 1 minute, filter paper was then removed and the cornea was extensively irrigated with 200 ml of PBS for 10 minutes. Left eye and right eye were then treated with control formula (6 mg/ml of POPC liposome in PBS) and cyclodextrin formula (50 mM HPαCD and 16.7 mM HPβCD in control formula), respectively. […]

[3] = tested on: ARPE-19 cells; assay type: cell-based
Procedure: (A, B) 40-50% confluent ARPE-19 cells in 96-well plate were cultured with serum-free medium for 24 hours, then incubated with 0.1 ml of serum-free medium containing 0-100 μM 1-Palmitoyl-sn-glycero-3-phosphocholine (LPC) for 22 hours. Cell morphology of control cells and 100 μM LPC treated cells was observed under a microscope, as shown in (B). The cells were then incubated with 0.15 ml of serum-free medium containing 0.5 mg/ml MTT at 37° C. for 2 hours. Formation of formazan is detected at 540 nm with 0.1 ml of DMSO as solvent (A). (C) As performed in (A), but with 100 μM LPC pre-incubated for 1 hour with 0-20 mM HPαCD, significant protection of HPαCD on ARPE-19 cells was observed when used at 0.5 mM or greater in medium (marked with *).
Human retinal pigment epithelial cell line, ARPE-19, was purchased from ATCC (Manassas, Va.). The cells were cultured in Dulbecco's modified Eagle's medium supplemented with 10% of heat-inactivated fetal bovine serum (FBS), 100 IU/ml of penicillin, and […] of streptomycin (all cell culture products from Invitrogen-Gibco, Rockville, Md.). Cells were maintained at 37° C. in a 5% CO2 incubator with medium change every 3-4 days. […]
Cell viability was determined with the colorimetric MTT metabolic activity assay. […] After removal of cell culture medium, formation of formazan from MTT reduction was detected at 540 nm with 0.1 ml of DMSO as solvent.

[4] = tested on: classical pathway of complement system; test: Complement activation (C3 fixation) by LIPC- or CEase-digested immobilized LDL with human serum; assay type: biochemical
Procedure: 96-well MaxiSorp plates were coated with fresh human LDL (A, D, E), VLDL (B), or NaOH-hydrolyzed LDL (C). After blocking with BSA, the plates, except (C), were digested with LIPC. To test complement activation, the plates were incubated with diluted native human serum (N), C1q-depleted human serum (Cd), factor B-depleted human serum (Bd), or human serum containing Mg-EGTA (ME). C3 fixation on the plate was detected with a monoclonal anti-C3d antibody followed by HRP-conjugated secondary antibody. Specific conditions for LIPC digestion and HRP-catalyzed color development of each experiment were outlined as following: LIPC was used at 10 μg/ml for (A, B, E), 0-50 μg/ml for (D), and no LIPC for (C). LIPC degradation was 1 hour for (D), 2 hours for (A, B), and 0-2 hours for (E). Color development was 15 minutes for (A, B, C, E) and 10 minutes for (D). For NaOH hydrolysis of LDL, 1.35 mg/ml of LDL was incubated in 0.15M NaOH solution at 25° C. for up to 60 minutes. Aliquots were taken out and neutralized with 0.15M HCl at 1, 10, 20, 60 minutes.
LIPC and CEase, both having 8 μUnits of phospholipase A1 activity but having 3 μUnits and 8125 μUnits of triglyceride hydrolase activity respectively, were used for 2 hours digestion of immobilized LDL. Complement activation with diluted native human serum is then determined as in FIG. 1. The HRP-catalyzed color development was 15 minutes.
Human LDL coating and 1 hour (C) or 2 hours (A, B) LIPC digestion was performed as described in FIG. 1. (A) For complement activation, 0-50 μM of phosphocholine was added into diluted native human serum. […]
as §2, with “The monoclonal anti-human C3d antibody is reactive to all C3d-containing fragments of C3, but not with C3 itself, so it detects C3 fixation on the plate and not C3 absorption.” left out

[5] = tested on: C5b-9; test: Terminal complement complex (C5b-9) formation by LIPC-digested LDL; assay type: biochemical; conditions: human serum with additional CRP
Procedure: Immobilized LDL was digested by LIPC and then incubated with human serum with or without additional CRP. C3 fixation (A) and C5b-9 formation (B) was determined by specific primary and HRP-conjugated secondary antibodies.
as §1, with “The diluent for serum dilution was PBS containing calcium and magnesium, and human sera that were utilized in our study were native serum, C1q-depleted serum, factor B-depleted serum, native serum with addition of 10 mM of MgCl2 and 20 mM EGTA (Mg-EGTA), and native serum with addition of 10 mM EDTA.” left out
as §2, with “The monoclonal anti-human C3d antibody is reactive to all C3d-containing fragments of C3, but not with C3 itself, so it detects C3 fixation on the plate and not C3 absorption.” left out

## 2-hydroxypropyl-α-cyclodextrin [HPαCD]
[1]; 0-20 mM HPαCD for 20 hours, 20 mM HPαCD for 0-20 hours
  extraction of complement-activating lysophospholipids, dose and time dependence: dose- and time-dependent
[1]; 2 mM HPαCD alone, 20 hours extraction
  extraction of lysophospholipids, HPαCD alone at low level: cannot extract much lysophospholipids
[1]; 2 mM HPαCD with 0.5 mg/ml native LDL, 20 hours extraction
  extraction of lysophospholipids, HPαCD in combination with native LDL: extract the most lysophospholipids
[1]; 20 hours extraction
  complement activation after cyclodextrin extraction of LIPC-digested LDL: significantly less complement activation; also recorded: Significant extraction of lysophospholipids
[2]; FIG. 7 representative result
  neovascularization area and vessel length: reduced dramatically
[2]; topical after alkali burn, right eye vs control formula left eye, three rabbits
  inhibition of corneal neovascularization: dramatic effect of HPαCD extraction on inhibition of corneal neovascularization
[3]; 100 μM LPC pre-incubated 1 hour with 0-20 mM HPαCD
  HPαCD concentration giving significant protection of ARPE-19 cells: ≥ 0.5 mM

## 2-hydroxypropyl-β-cyclodextrin [reference compound]
[1]; 20 hours extraction
  complement activation after cyclodextrin extraction of LIPC-digested LDL: much weaker effects

## CCCCCCCCCCCCCCCC(=O)OC[C@@H](O)COP(=O)([O-])OCC[N+](C)(C)C [1-palmitoyl-sn-glycero-3-phosphocholine, reference compound]
[3]; serum-free medium, 22 hours, 0-100 μM tested
  concentration inducing ARPE-19 cell death: ≥ 20 μM

## C[N+](C)(C)CCOP(=O)([O-])O [phosphocholine, reference compound]
[4]; 0-50 μM phosphocholine in diluted native human serum
  complement activation by LIPC-digested LDL, phosphocholine added into serum: significantly decreases complement activation

## OC[C@H]1O[C@@H]2O[C@H]3[C@H](O)[C@@H](O)[C@@H](O[C@H]4[C@H](O)[C@@H](O)[C@@H](O[C@H]5[C@H](O)[C@@H](O)[C@@H](O[C@H]6[C@H](O)[C@@H](O)[C@@H](O[C@H]7[C@H](O)[C@@H](O)[C@@H](O[C@H]1[C@H](O)[C@H]2O)O[C@@H]7CO)O[C@@H]6CO)O[C@@H]5CO)O[C@@H]4CO)O[C@@H]3CO [α-cyclodextrin, reference compound]
[1]; 20 hours extraction
  complement activation after cyclodextrin extraction of LIPC-digested LDL: much weaker effects

## OC[C@H]1O[C@@H]2O[C@H]3[C@H](O)[C@@H](O)[C@@H](O[C@H]4[C@H](O)[C@@H](O)[C@@H](O[C@H]5[C@H](O)[C@@H](O)[C@@H](O[C@H]6[C@H](O)[C@@H](O)[C@@H](O[C@H]7[C@H](O)[C@@H](O)[C@@H](O[C@H]8[C@H](O)[C@@H](O)[C@@H](O[C@H]1[C@H](O)[C@H]2O)O[C@@H]8CO)O[C@@H]7CO)O[C@@H]6CO)O[C@@H]5CO)O[C@@H]4CO)O[C@@H]3CO [β-cyclodextrin, reference compound]
[1]; 20 hours extraction
  complement activation after cyclodextrin extraction of LIPC-digested LDL: much weaker effects

## methyl-β-cyclodextrin [reference compound]
[1]; 20 hours extraction
  complement activation after cyclodextrin extraction of LIPC-digested LDL: much weaker effects

B1: CRP: purified human CRP, binding protein of lysophosphatidylcholine (protein, UniProt P02741 19-224, looked up)
C-reactive protein: QTDMSRKAFVFPKESDTSYVSLKAPLTKPLKAFTVCLHFYTELSSTRGYSIFSYATKRQDNEILIFWSKDIGYSFTVGGSEILFEVPEVTVAPVHICTSWESASGIVEFWVDGKPRVRKSLKKGYTVGAEASIILGQEQDSFGGNFEGSQSLVGDIGNVNMWDFVLSPDEINTIYLGGPFSPNVLNWRALKYEVQGEVFTKPQLWP
[5]
  terminal complement complex formation with additional CRP: blocks the terminal complement complex formation
[4]; native human serum supplemented with purified human CRP
  C3 fixation by LIPC-digested LDL with additional CRP: dose-dependently enhances its activity on complement activation; also recorded: enhances C3 fixation
